Experimental data from article PMC9097457 (The Journal of Biological Chemistry, 2022).
Where a name gives a salt, the structure may show the parent alone.

Legend:
[1] = target: T1, adenosine deaminase (ADA) (Rattus norvegicus, UniProt Q920P6)
T1 sequence (Q920P6 1-352): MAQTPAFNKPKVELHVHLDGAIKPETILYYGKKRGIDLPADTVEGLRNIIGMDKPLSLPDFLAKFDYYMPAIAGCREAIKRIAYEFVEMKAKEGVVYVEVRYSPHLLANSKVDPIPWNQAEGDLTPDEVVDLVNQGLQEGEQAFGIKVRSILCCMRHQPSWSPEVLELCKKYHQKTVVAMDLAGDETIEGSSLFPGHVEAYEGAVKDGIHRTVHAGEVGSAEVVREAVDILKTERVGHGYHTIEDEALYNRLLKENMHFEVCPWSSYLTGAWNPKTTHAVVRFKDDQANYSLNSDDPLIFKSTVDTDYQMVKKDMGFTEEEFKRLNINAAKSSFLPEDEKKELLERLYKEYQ

[2] = target: T2, deoxyguanosine kinase (dGK) (Rattus norvegicus, UniProt A0A0G2K478); experiment: Tissue-specific phosphorylation of [3H]-dG, [3H]-dA and [3H]-ETV in isolated mitochondria; format: biochemical; settings: heart mitochondria
T2 sequence (A0A0G2K478 with tags, fused parts or gaps): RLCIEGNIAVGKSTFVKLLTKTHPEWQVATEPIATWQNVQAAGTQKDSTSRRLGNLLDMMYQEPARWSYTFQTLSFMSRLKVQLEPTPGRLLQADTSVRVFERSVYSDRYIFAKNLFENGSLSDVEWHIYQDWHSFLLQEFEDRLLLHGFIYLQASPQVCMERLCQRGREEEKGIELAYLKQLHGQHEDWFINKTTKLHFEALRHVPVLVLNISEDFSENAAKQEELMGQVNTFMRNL
Method: As noted in the Experimental procedures, these were added together to determine total phosphorylation.
(§1) To measure and compare phosphorylation and kinetics, a stable substrate concentration was necessary and EHNA (5 μM) ([50]) and I-H (2.0 μM) ([49]) were added to all mitochondrial incubations. […] The mitochondria were incubated in vitro for up to 2 h at 37 °C in a shaker bath. At the end of the incubation, reactions were terminated by addition of 10% TCA to an equal volume of incubation mixture (175 μl) and spun in a microcentrifuge to remove precipitates. The supernatant was neutralized with AG 11 A8 resin and filtered through a 0.2-μM nylon syringe filter. The neutralized and filtered supernatants were analyzed by ultra high pressure liquid chromatography (UPLC). Radioactivity was determined from aliquots of each sample and processed through a Beckman Coulter multipurpose liquid scintillation counter (model 6500).
(§2) Extent of phosphorylation was measured and analyzed by UPLC (Agilent 1290) with a reverse-phase C18 column (Zorbax Eclipse Plus C18; 3.0 × 150 mm, 1.8 micron) coupled with an inline diode array to detect UV signal at 254 nm and to an inline liquid scintillation counter (β-Ram) to quantitate radioactivity.
(§3) The radioactivity in each of these peaks was quantitated and totaled to provide the total amount of radioactivity in the phosphorylated products for each labeled precursor. This total was divided by the specific radioactivity of the precursor and expressed as pmol/mg protein/hr. The Kms were calculated from Lineweaver–Burk plots 1/Vo=Km/Vmax[S]+1/Vmax

[3] = target: T2, deoxyguanosine kinase (dGK); experiment: Pilot study: effect of 100 μM dG/dA nucleoside analogs on [3H]-dG or [3H]-dA phosphorylation in isolated mitochondria; format: biochemical; settings: 100 μM analog; [3H]-dG 0.5 μM in liver, kidney, heart, brain mitochondria; [3H]-dA in liver mitochondria; 2 h; + EHNA 5 μM, I-H 2 μM
Method: Immucillin-H (I-H) (2 μM) and EHNA (5 μM) were added to the incubation mixture to prevent the breakdown of substrate by purine nucleoside phosphorylase (PNP) and adenosine deaminase (ADA) activity, respectively.
as §1, §2, §3

adenylate kinase = experiment: Conversion of [3H]-dAMP to [3H]-dATP in isolated heart mitochondria; format: biochemical, rat
Method: (§4) Thus, we were interested in determining if the dGTP and dATP phosphorylation pathway in isolated mitochondria functioned similarly.
(§5) [^3H]-dGMP (1 μM) or [^3H]-dAMP (1 μM) was incubated in heart mitochondria as described for Figure 1 for the times shown, and their conversion to [^3H]-dGTP and [^3H]-dATP, respectively, determined in the presence and absence of Ap5A ([…]), a competitive inhibitor of adenylate kinase. Data are shown as a box plot of two independent experiments. The thickness of the lines indicates the spread of the duplicates. Ap5A, P1,P5-di(adenosine-5) pentaphosphate pentasodium salt.
as §1, with “The supernatant was neutralized with AG 11 A8 resin and filtered through a 0.2-μM nylon syringe filter.” left out

heart mitochondria = experiment: Conversion of [3H]-dGMP to [3H]-dGTP in isolated heart mitochondria; format: biochemical, rat
Method: as §4, §5, §1

[4] = target: T3, purine nucleoside phosphorylase (PNP) (Rattus norvegicus, UniProt P85973); settings: 2.0 μM, kidney mitochondria, 60 min
T3 sequence (P85973 1-289): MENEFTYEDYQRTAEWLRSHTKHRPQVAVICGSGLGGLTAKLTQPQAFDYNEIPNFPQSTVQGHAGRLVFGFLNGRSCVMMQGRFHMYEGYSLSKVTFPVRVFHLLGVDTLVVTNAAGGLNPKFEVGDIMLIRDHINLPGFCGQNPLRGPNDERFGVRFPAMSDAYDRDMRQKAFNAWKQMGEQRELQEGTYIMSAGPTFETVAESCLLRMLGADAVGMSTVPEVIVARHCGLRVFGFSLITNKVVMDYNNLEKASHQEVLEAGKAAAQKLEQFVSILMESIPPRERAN

isolated rat heart [5] = experiment: Breakdown of the [3H]-parent compound in the perfusate of the isolated perfused rat heart; format: in vitro ADME
Method: To determine the degree of phosphorylation in a whole tissue, which would include the activity of the cytosolic dCK, we utilized an isolated rat heart Langendorff retrograde perfusion model.
See text for details. […] See text for details.
Perfused hearts were snap frozen into wafers by clamping the heart in liquid nitrogen, and the frozen tissue wafers were stored in −80 °C until processed as previously described for ([24]) UPLC analysis.

[6] = target: T2, deoxyguanosine kinase (dGK); experiment: Inhibition of [3H]-dA phosphorylation by competing deoxynucleosides in liver mitochondria; format: biochemical; settings: IC50 values at 1 μM substrate
Method: as §1, §3

isolated rat heart [7] = experiment: Phosphorylation of [3H]-ETV, [3H]-dG and [3H]-dA in the isolated perfused rat heart (Langendorff)
Method: The phosphorylation of [^3H]-dG, [^3H]-dA, and [^3H]-ETV in isolated mitochondria depends on the activity of the mitochondrial dGK. To determine the degree of phosphorylation in a whole tissue, which would include the activity of the cytosolic dCK, we utilized an isolated rat heart Langendorff retrograde perfusion model. The breakdown and phosphorylation of [^3H]-ETV, [^3H]-dG, and [^3H]-dA (0.5 μM each) was measured in the perfusates and in the hearts after 60 min of perfusion (Fig. 9, A and B). […] However, the heart was still able to take up and maintain a small amount of dG to generate 0.18 ± 0.05 pmol/mg wet heart of phosphorylated dG during the 60-min perfusion. […] Despite the loss of [^3H]-dA from the perfusate, the heart took up and maintained enough dA to produce 0.48 ± 0.08 pmol/mg wet heart of phosphorylated [^3H]-dA products at 60 min (Fig. 9B). […] Note that [^3H]-dG and [^3H]-dG catabolites equilibrate rapidly between the perfusion buffer and the heart, while the phosphorylated forms of [^3H]-dG are retained solely in the heart tissue.
Figure 9 [^3H]-ETV and [^3H]-dG phosphorylation in a perfused rat heart. Rat hearts were removed and perfused using the Langendorff method for 1 h as described in Experimental procedures with 0.5 μM [^3H]-ETV, 0.5 μM [^3H]-dG), or 0.5 μM [^3H]-dA. […] A, the amount of exogenous [^3H]-parent compound in the perfusate as a function of time, plotted as a box plot of three independent experiments. See text for details. B, the amount of phosphorylated [^3H]-ETV, [^3H]-dG, or [^3H]-dA in the heart tissue after 60 min of perfusion with additions as noted in (A). See text for details.
Rat hearts were perfused by Langendorff retrograde perfusion apparatus with [^3H]-dG, [^3H]-dA, or [^3H]-ETV for 60 min under the conditions previously described ([25], [26], [51]). Perfused hearts were snap frozen into wafers by clamping the heart in liquid nitrogen, and the frozen tissue wafers were stored in −80 °C until processed as previously described for ([24]) UPLC analysis.

[8] = target: T2, deoxyguanosine kinase (dGK); experiment: Kinetic analysis of [3H]-dG and [3H]-ETV phosphorylation and cross inhibition in heart mitochondria; format: biochemical; settings: 40 μM ETV, data of Figure 4
Method: as §1, §3

Structure (SMILES): CCCCCCC(C(C)O)n1cnc2c(N)ncnc21.Cl (stereo not drawn) [EHNA, erythro-9-(2-Hydroxy-3-nonyl)-adenine hydrochloride]
- effect on conversion of [3H]-dA to breakdown products ([1]; EHNA 5 μM, 60 min): completely prevented this conversion
- effect on [3H]-dA or [3H]-dG phosphorylation [2]: no effect

Structure (SMILES): Nc1nc2c(ncn2CCC(CO)CO)c(=O)[nH]1 [penciclovir]
- inhibition of the phosphorylation of dA and dG [3]: ETV was shown to be the only dG/dA analog of the eight tested that showed significant inhibition

Structure (SMILES): Nc1ncnc2c1ncn2[C@@H]1O[C@H](COP(=O)([O-])OP(=O)([O-])OP(=O)([O-])OP(=O)([O-])OP(=O)([O-])OC[C@H]2O[C@@H](n3cnc4c(N)ncnc43)[C@H](O)[C@@H]2O)[C@@H](O)[C@H]1O.[Na+].[Na+].[Na+].[Na+].[Na+] [Ap5A, P1,P5-di(adenosine-5) pentaphosphate pentasodium salt]
- effect on conversion of [3H]-dAMP to [3H]-dATP (adenylate kinase; Ap5A 40 μM): inhibited
- effect on phosphorylation of dGMP (heart mitochondria; Ap5A 40 μM): not inhibited

Structure (SMILES): O=c1[nH]cnc2c([C@@H]3N[C@H](CO)[C@@H](O)[C@H]3O)c[nH]c12 [I-H, forodesine hydrochloride]
- effect on conversion of [3H]-dG to breakdown products [4]: completely prevented this conversion
- effect on [3H]-dA breakdown ([1]; Immucillin-H 2.0 μM, 60 min): no effect
- effect on breakdown of dG in the perfusate (isolated rat heart [5]; I-H 2 μM): prevented most of the breakdown
- effect on [3H]-dA or [3H]-dG phosphorylation [2]: no effect

Structure (SMILES): Nc1ncnc2c1ncn2[C@H]1C[C@H](O)[C@@H](COP(=O)(O)O)O1 [dAMP]
- time to complete conversion to [3H]-dATP (adenylate kinase; 1 μM): ≤ 10 min

Structure (SMILES): CC(C)OC(=O)OCOP(=O)(CO[C@H](C)Cn1cnc2c(N)ncnc21)OCOC(=O)OC(C)C.O=C(O)/C=C/C(=O)O [TDF, tenofovir disproxil fumarate]
- inhibition of the phosphorylation of dA and dG [3]: ETV was shown to be the only dG/dA analog of the eight tested that showed significant inhibition

Structure (SMILES): C=C1[C@H](CO)[C@@H](O)C[C@@H]1n1cnc2c(=O)[nH]c(N)nc21 [ETV, entecavir]
- inhibition of dA phosphorylation more potent than ETV inhibition of dG phosphorylation [6]: 500 fold
- phosphorylated product in heart (isolated rat heart [7]; 0.5 μM labeled compound alone, 60-min perfusion): 0.25 ± 0.05 pmol/mg wet heart
- inhibition of [3H]-dG phosphorylation (isolated rat heart [7]; 100 μM unlabeled ETV added to [3H]-dG + I-H, 60-min perfusion): 82.0 ± 0.7%
- effect on [3H]-dA phosphorylation (isolated rat heart [7]; ETV 100 μM added to the perfusate): did not appear to inhibit
- rate of [3H]-dG phosphorylation to [3H]-dGTP in the presence of inhibitor [8]: 12.4 ± 2.0 pmol/mg protein/hr
- effect on conversion of [3H]-dGMP to [3H]-dGTP (heart mitochondria; ETV 40 μM): no effect

Structure (SMILES): Nc1nc(=O)c2ncn([C@@H]3C[C@H](CO)[C@H]3CO)c2[nH]1 [lobucavir]
- inhibition of the phosphorylation of dA and dG [3]: ETV was shown to be the only dG/dA analog of the eight tested that showed significant inhibition

Structure (SMILES): Nc1nc(O)c2ncn(COC(CO)CO)c2n1 [ganciclovir]
- inhibition of the phosphorylation of dA and dG [3]: ETV was shown to be the only dG/dA analog of the eight tested that showed significant inhibition

Structure (SMILES): Nc1ncnc2c1ncn2[C@H]1C[C@H](O)[C@@H](CO)O1 [dA, deoxyadenosine]
- stability in heart mitochondria ([1]; heart mitochondria, initial studies): stable
- conversion of [3H]-dA to breakdown products ([1]; mitochondria isolated from kidney, 60 min, no inhibitor): 28%
- parent compound in the perfusate by 60 min (isolated rat heart [5]; 0.5 μM [3H]-dA, EHNA added): complete loss
- parent compound remaining in the perfusate by 3 min (isolated rat heart [5]; 0.5 μM [3H]-dA, EHNA added): 47.5%
- parent compound in the perfusate by 3 min (isolated rat heart [5]; 0.5 μM [3H]-dA, in the presence of I-H): completely lost
- phosphorylated [3H]-dA products in heart (isolated rat heart [7]; 0.5 μM [3H]-dA, I-H and EHNA in the perfusate, 60 min): 0.48 ± 0.08 pmol/mg wet heart

Structure (SMILES): Nc1ncnc2c1ncn2CCOCP(=O)(O)O [adefovir]
- inhibition of the phosphorylation of dA and dG [3]: ETV was shown to be the only dG/dA analog of the eight tested that showed significant inhibition

Structure (SMILES): Nc1nc2c(ncn2[C@H]2C[C@H](O)[C@@H](COP(=O)(O)O)O2)c(=O)[nH]1 [dGMP]
- plateau, complete conversion of [3H]-dGMP to [3H]-dGTP (heart mitochondria; 1 μM): 123 ± 1 pmol/mg protein
- conversion to [3H]-dGTP at the 30-min time point (heart mitochondria; 1 μM precursor): 106 ± 4 pmol/mg protein
- conversion of dGMP to dGTP faster than conversion of dG to dGTP (heart mitochondria; 30 min): 4.6 times

Structure (SMILES): C[C@H](Cn1cnc2c(N)ncnc21)OCP(=O)(O)O [tenofovir]
- inhibition of the phosphorylation of dA and dG [3]: ETV was shown to be the only dG/dA analog of the eight tested that showed significant inhibition

Structure (SMILES): Nc1nc2c(ncn2[C@H]2CC[C@@H](CO)O2)c(=O)[nH]1 [dideoxyguanosine]
- inhibition of the phosphorylation of dA and dG [3]: ETV was shown to be the only dG/dA analog of the eight tested that showed significant inhibition
